Experimental data: ChEMBL document CHEMBL1153260, “The synthesis of aminobenzazepinones as anti-phenylalanine dipeptide mimics and their use in nep inhibition” (Bioorg Med Chem Lett, 1996)

Target: T1, Neprilysin (Rattus norvegicus, UniProt P07861)
T1 sequence (P07861 whole entry): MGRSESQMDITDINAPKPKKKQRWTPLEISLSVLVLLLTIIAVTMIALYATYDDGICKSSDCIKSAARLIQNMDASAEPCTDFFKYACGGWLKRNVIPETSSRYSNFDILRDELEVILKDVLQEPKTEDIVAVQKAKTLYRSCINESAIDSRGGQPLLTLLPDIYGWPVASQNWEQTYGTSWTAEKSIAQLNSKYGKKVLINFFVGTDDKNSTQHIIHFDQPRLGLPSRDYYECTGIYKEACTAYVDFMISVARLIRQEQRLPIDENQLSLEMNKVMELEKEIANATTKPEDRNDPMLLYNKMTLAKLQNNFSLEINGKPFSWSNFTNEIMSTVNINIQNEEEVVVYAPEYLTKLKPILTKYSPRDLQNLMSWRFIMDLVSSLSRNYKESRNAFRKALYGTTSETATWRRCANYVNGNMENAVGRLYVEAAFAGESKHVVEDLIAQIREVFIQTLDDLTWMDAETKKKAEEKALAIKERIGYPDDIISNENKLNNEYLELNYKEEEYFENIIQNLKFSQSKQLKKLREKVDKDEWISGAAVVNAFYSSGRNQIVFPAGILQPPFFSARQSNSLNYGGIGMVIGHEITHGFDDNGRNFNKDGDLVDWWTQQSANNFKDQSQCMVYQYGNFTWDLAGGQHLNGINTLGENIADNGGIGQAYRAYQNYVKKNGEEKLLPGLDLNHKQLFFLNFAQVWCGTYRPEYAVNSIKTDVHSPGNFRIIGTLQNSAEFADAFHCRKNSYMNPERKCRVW
Assay: Compound was tested for inhibition of neutral endopeptidase (NEP).

Row | Ki [pM] | Structure (SMILES)
1 | 70 | O=C(O)C1CCCC2c3ccccc3C[C@H](NC(=O)[C@H](S)Cc3ccccc3)C(=O)N12 (stereo partly drawn)
2 | 400 | CC(C)C[C@@H](C(=O)O)N1Cc2ccccc2C[C@H](NC(=O)[C@H](S)Cc2ccccc2)C1=O
3 | 330000 | CC(C)CC(C(=O)O)N1CCO[C@@H](c2ccccc2)[C@H](NC(=O)[C@H](S)Cc2ccccc2)C1=O (single isomer, unassigned)
